Test results: article PMC4562501 (Anesthesiology, 2014)
Where two headings read alike, the source gives them in different places.

Key:
healthy volunteers [1] = assay: Miosis; format: in vivo, human
P-gp [2] = conditions: well-known P-gp substrate, for comparison; cited from earlier work
[3] = oral methadone; for Plasma Cmax/dose: control session, n=16, mean ± SD
clinical = conditions: both, human, in vivo, po, oral methadone; for Tmax: Plasma Tmax; for half-life: Plasma t½
[4] = Intravenous methadone pharmacokinetics, protocol 2; format: in vivo; conditions: both, human, plasma
healthy volunteers [5] = assay: Miosis; format: in vivo, human; conditions: IV methadone
[6] = racemic methadone; cited from earlier work
P-gp [7] = conditions: Caco-2 cells; cited from earlier work
healthy volunteers [8] = assay: Thermal analgesia; conditions: oral methadone
healthy volunteers [9] = assay: Thermal analgesia; format: in vivo, human; conditions: IV methadone
P-gp [10] = conditions: tariquidar 6 mg/kg, humans; cited from earlier work

CCC(=O)C(C[C@@H](C)N(C)C)(c1ccccc1)c1ccccc1 [R-Methadone, R-methadone]
Plasma concentration at which miosis was detectable (average) (healthy volunteers [1]; plasma R-methadone): 5 ng/mL

CN(C)C(=O)C(CCN1CCC(O)(c2ccc(Cl)cc2)CC1)(c1ccccc1)c1ccccc1 [loperamide]
Transport ratio (P-gp [2]): exceeds 10

CC=C1N(C)C(C)CC1(c1ccccc1)c1ccccc1 (stereo not shown) [S-EDDP, 2-ethylidene-1,5-dimethyl-3,3-diphenylpyrrolidine]
Plasma AUC0-96/dose ([3]; control): 11.6 ± 3.2 ng·h/mL/mg
Plasma Tmax ([3]; control): 2.3 ± 0.7 h
Plasma t½ ([3]; control): 87 ± 25 h
Urine %dose eliminated (0-24 h) ([3]; control): 7.2 ± 3.8 %dose
Urine %dose eliminated (0-96 h) ([3]; control): 15 ± 6 %dose
Plasma Cmax/dose [3]: 0.35 ± 0.17 ng/mL/mg
Plasma AUC0-96/dose ([3]; cyclosporine-treated): 14.4 ± 3.5 ng·h/mL/mg
Plasma t½ ([3]; cyclosporine-treated): 102 ± 39 h
Urine %dose eliminated (0-24 h) ([3]; cyclosporine-treated): 7.4 ± 3.7 %dose
Urine %dose eliminated (0-96 h) ([3]; cyclosporine-treated): 16 ± 8 %dose
Plasma AUC0-96 (EDDP/methadone) ratio (cyclosporine/control) ([3]; geometric mean and 90% confidence interval): 1.15 (1.04, 1.27)

CC=C1N(C)C(C)CC1(c1ccccc1)c1ccccc1 (stereo not shown) [EDDP, 2-ethylidene-1,5-dimethyl-3,3-diphenylpyrrolidine]
Increase of EDDP/methadone AUC ratio by cyclosporine [3]: 11-15%

CCC(=O)C(C[C@H](C)N(C)C)(c1ccccc1)c1ccccc1 [S-Methadone, S-methadone]
Tmax (clinical; control): 2 ± 0.5 h
Tmax (clinical; cyclosporine-treated): 4.6 ± 2.3 h
AUC(0-t) [4]: 282 ± 68 ng·h/mL
AUC(0-t) ([4]; 0.1 mg/kg): 276 ± 47 ng·h/mL
Cmax ([4]; 0.1 mg/kg): 32.2 ± 7.9 ng/mL

CCC(=O)C(CC(C)N(C)C)(c1ccccc1)c1ccccc1 (stereo not shown) [methadone]
Miotic response (average) (healthy volunteers [5]): 2.5 mm
Peak miosis (healthy volunteers [5]; controls): 3.1 ± 1.0 mm
Peak miosis (healthy volunteers [5]; cyclosporine-treated subjects): 3.2 ± 0.8 mm
Median minimal effective (postoperative) analgesia threshold [6]: 31 ng/mL
Reduction of rhodamine transport (P-gp [7]): 25%
Maximally tolerated temperature (method of limits) (healthy volunteers [8]): increased the maximally tolerated temperature
Verbal analog ratings to discrete temperatures (healthy volunteers [8]): small and brief analgesic effect
Analgesic effect (thermal) (healthy volunteers [9]): minimal analgesic effects
Miotic response (average) (healthy volunteers [1]; oral methadone): 2 mm
Peak miosis (dose-adjusted) (healthy volunteers [1]; oral methadone, controls): 1.4 ± 0.4 mm/mg
Peak miosis (dose-adjusted) (healthy volunteers [1]; oral methadone, cyclosporine-treated subjects): 1.3 ± 0.5 mm/mg

CC=C1N(C)C(C)CC1(c1ccccc1)c1ccccc1 (stereo not shown) [R-EDDP, 2-ethylidene-1,5-dimethyl-3,3-diphenylpyrrolidine]
Tmax (clinical; control): 2.5 ± 0.5 h
Tmax (clinical; cyclosporine-treated): 4.1 ± 1.1 h
half-life (clinical; control): 57 ± 22 h
half-life (clinical; cyclosporine-treated): 73 ± 38 h
Plasma AUC0-96/dose ([3]; control): 6.7 ± 1.6 ng·h/mL/mg
Urine %dose eliminated (0-24 h) ([3]; control): 4.2 ± 2.3 %dose
Urine %dose eliminated (0-96 h) ([3]; control): 9 ± 4 %dose
Plasma Cmax/dose [3]: 0.24 ± 0.09 ng/mL/mg
Plasma AUC0-96/dose ([3]; cyclosporine-treated): 8.2 ± 1.9 ng·h/mL/mg
Urine %dose eliminated (0-24 h) ([3]; cyclosporine-treated): 4.2 ± 1.8 %dose
Urine %dose eliminated (0-96 h) ([3]; cyclosporine-treated): 10 ± 4 %dose

COc1cc2c(cc1OC)CN(CCc1ccc(NC(=O)c3cc(OC)c(OC)cc3NC(=O)c3cnc4ccccc4c3)cc1)CC2 [tariquidar]
Increase in brain concentrations of (R)-[11C]verapamil (P-gp [10]): 2.5 fold
Increase in brain concentrations of [11C]N-desmethyl-loperamide (P-gp [10]): 4 fold
